The subject of test [1] is Streptococcus pyogenes. In words: MIC test, microdilution method (CLSI). In kind it is cell-based. Particulars: ATCC strain of Streptococcus pyogenes, 18-20 h at 37° C., MIC = concentration at which growth inhibited ≥80%, read-out: Activity (MIC) Spy. The procedure: (§1) Experimental Procedure: MIC Test. Microdilution Method
(§2) To evaluate the antimicrobial activity of the compounds, ATCC strains of Streptococcus pneumoniae and Streptococcus pyogenes were used. The minimal inhibitory concentrations (MICs) of the compounds were determined by microdilution assays, according to CLSI methodology.
(§3) 3 mg of compound were weighted in a 4 mL glass vials and were dissolved in properly volume of DMSO 100% (Reference: D2438-50, Sigma) to reach 12.8 mg/mL. (Cmax.).
(§4) In 96-well plates U-form (Reference: 650161, Greiner Bio-One): • Dispense 50 μL of the assayed compounds prepared in DMSO 100% at 12.8 mg/mL in each well in column 1. (8 different compounds per plate, row 1 to row 8) • Dispense 25 μL of DMSO 100% in all wells in columns 2 to 12. • With a multichannel pipette, aspire 25 μL of column 1 and dispense in column 2. Mix the contents in column 2 several times and aspire 25 uL. Dispense in column 3. • Repeat the process until column 10. In column 10, aspire 25 μL of the content and discard. • The final mother plate map is (all values in mg/mL)
(§5) In 96-well plates U-form: • With a multichannel pipette (in dispensing mode), aspire a properly volume (consider the number of copies of the mother plate do you want to perform) of all wells in mother plate, to dispense 1 μL/well in daughter plates.
(§6) Bacterial suspension will be prepared and normalized to 0.5 McFarland turbidity standard (approximately 10^8 CFU/mL) using a physiological saline solution (sodium chloride 0,9%). Then, prepared a 1/1000 dilution (approximately 10^5 CFU/mL) of the suspension in appropriate media (CLSI Standard) and inoculate 99 μL in each well in daughter plates (only columns 1 to 11) using a multidrop™ Combi Reagent Dispenser. In column 12, only 99 μL of media will be dispense as a sterility control.
(§7) The final plate map is (all values in μg/mL):
(§8) Plates will be incubated 18-20 h at 37° C. MIC values will be considered as the concentration of compounds at which the growth will be inhibited=>≥80%, compared to growth control.
For orientation: Broth dilution looks for growth in wells or tubes with falling amounts of substance.

Test [2] has as its system Streptococcus pneumoniae. The test can be described thus: MIC test, microdilution method (CLSI). It is filed as cell-based. Particulars: ATCC strain of Streptococcus pneumoniae, 18-20 h at 37° C., MIC = concentration at which growth inhibited ≥80%, read-out: Activity (MIC) Spn. How it is done: as §1, §2, §3, §4, §5, §6, §7, §8

In brackets after ≈: the same amount, converted by molar mass.

Consider `NC(=O)[C@@H](O)CNC(=O)c1ccc(O[C@@H](CC2CCCCC2)c2ccc(-c3ccc(F)cc3)cc2)cc1` [Example 1, N-((S)-3-Amino-2-hydroxy-3-oxopropyl)-4-((S)-2-cyclohexyl-1-(4′-fluoro-[1,1′-biphenyl]-4-yl)ethoxy)benzamide], for which the minimum inhibitory concentration (MIC) in test [1] and in test [2] was 4 µg/mL (≈ 7.93 µM) throughout.
Regarding `NC(=O)[C@@H](O)CNC(=O)c1ccc(O[C@@H](CC2CCCCC2)c2cccc(-c3ccc(C(F)(F)F)cc3)c2)cc1` [Example 2, N-((S)-3-Amino-2-hydroxy-3-oxopropyl)-4-((S)-2-cyclohexyl-1-(4′-(trifluoromethyl)-[1,1′-biphenyl]-3-yl)ethoxy)benzamide], the results for the minimum inhibitory concentration (MIC) in test [1] and in test [2] were 1 µg/mL (≈ 1.8 µM) and 2 µg/mL (≈ 3.61 µM), respectively.
As for `NC(=O)[C@@H](O)CNC(=O)c1ccc(O[C@@H](CC2CCOCC2)c2ccc(-c3ccc(C(F)(F)F)cc3)cc2)cc1` [Example 4, N-((S)-3-amino-2-hydroxy-3-oxopropyl)-4-((S)-2-(tetrahydro-2H-pyran-4-yl)-1-(4′-(trifluoromethyl)-[1,1′-biphenyl]-4-yl)ethoxy)benzamide], the minimal inhibitory concentration (MIC) in test [1] and in test [2] was greater than 128 µg/mL each time.
Consider `CC(C)C[C@H](Oc1ccc(C(=O)NC[C@H](O)C(N)=O)cc1)c1ccc(-c2ccc(C(F)(F)F)cc2)cc1` [Example 5, N-((S)-3-amino-2-hydroxy-3-oxopropyl)-4-((S)-3-methyl-1-(4′-(trifluoromethyl)-[1,1′-bipheny]-4-yl)butoxy)benzamide], for which the MIC in test [1] and in test [2] was greater than 128 µg/mL each time.
For `CC(C)[C@H](Oc1ccc(C(=O)NC[C@H](O)C(N)=O)cc1)c1ccc(-c2ccc(C(F)(F)F)cc2)cc1` [Example 6, N-((S)-3-amino-2-hydroxy-3-oxopropyl)-4-((S)-2-methyl-1-(4′-(trifluoromethyl)-[1,1′-biphenyl]-4-yl)propoxy)benzamide], the minimum inhibitory concentration (MIC) in test [1] and in test [2] was 4 µg/mL (≈ 7.99 µM) each time.
Regarding `CNC(=O)[C@@H](O)CNC(=O)c1ccc(O[C@@H](CC2CCCCC2)c2cccc(-c3ccc(C(F)(F)F)cc3)c2)cc1` [Example 8, 4-((S)-2-cyclohexyl-1-(4′-(trifluoromethyl)-[1,1′-biphenyl]-3-yl)ethoxy)-N-((S)-2-hydroxy-3-(methylamino)-3-oxopropyl)benzamide], the MIC in test [1] and in test [2] was 4 µg/mL (≈ 7.03 µM) each time.

Broadly, the MIC is the lowest concentration that inhibits growth of the organism.

For the origin of these results see patent US20260225998A1, “NEW COMPOUNDS FOR TREATING STREPTOCOCCUS INFECTIONS” (AB2 THERAPEUTICS, S. L., priority 2023, published 2026).
